#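 Values below derive from 48-hour exposures of cells grown in 96-well plates, with endpoints linearly interpolated between the two concentrations bracketing the appropriate inhibition level. Definition used: TGI = concentration required for complete inhibition of growth.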
# Experiments:
# Test in all cases: NCI tumour cell line growth inhibition, 48 h
# SF-295 CNS = tested on: SF-295 CNS
# T-47D breast = tested on: T-47D breast
# OVCAR-8 ovarian = tested on: OVCAR-8 ovarian
# HOP-62 NSCLC = tested on: HOP-62 NSCLC
# TK-10 renal = tested on: TK-10 renal
# NCI-H226 lung = tested on: NCI-H226 lung
# COLO 205 colon = tested on: COLO 205 colon
# NCI-H23 lung = tested on: NCI-H23 lung
# SNB-19 CNS = tested on: SNB-19 CNS
# NCI-H460 lung = tested on: NCI-H460 lung
# A549 NSCLC = tested on: A549 NSCLC
# BT-549 breast = tested on: BT-549 breast
# UO-31 renal = tested on: UO-31 renal
# OVCAR-3 ovarian = tested on: OVCAR-3 ovarian
# SR leukemia = tested on: SR leukemia
# HL-60(TB) leukemia = tested on: HL-60(TB) leukemia
# PC-3 prostate = tested on: PC-3 prostate
# HCC-2998 colon = tested on: HCC-2998 colon
# ACHN renal = tested on: ACHN renal
# EKVX NSCLC = tested on: EKVX NSCLC
# A498 renal = tested on: A498 renal
# RPMI-8226 leukemia = tested on: RPMI-8226 leukemia
# SK-MEL-2 melanoma = tested on: SK-MEL-2 melanoma
# HCT-116 colon = tested on: HCT-116 colon
# M14 melanoma = tested on: M14 melanoma
# CCRF-CEM leukemia = tested on: CCRF-CEM leukemia
# NCI-H522 lung = tested on: NCI-H522 lung
# OVCAR-5 ovarian = tested on: OVCAR-5 ovarian
# NCI/ADR-RES ovarian = tested on: NCI/ADR-RES ovarian
# LOX IMVI melanoma = tested on: LOX IMVI melanoma
# SNB-75 CNS = tested on: SNB-75 CNS
# HT29 colon = tested on: HT29 colon
# DU-145 prostate = tested on: DU-145 prostate
# SK-MEL-28 melanoma = tested on: SK-MEL-28 melanoma
# SN12C renal = tested on: SN12C renal
# CAKI-1 renal = tested on: CAKI-1 renal
# SW-620 colon = tested on: SW-620 colon
# HOP-92 NSCLC = tested on: HOP-92 NSCLC
# HCT-15 colon = tested on: HCT-15 colon
# UACC-62 melanoma = tested on: UACC-62 melanoma
# SK-OV-3 ovarian = tested on: SK-OV-3 ovarian
# MALME-3M melanoma = tested on: MALME-3M melanoma
# RXF 393 renal = tested on: RXF 393 renal
# OVCAR-4 ovarian = tested on: OVCAR-4 ovarian
# MCF7 breast = tested on: MCF7 breast
# U251 CNS = tested on: U251 CNS
# HS 578T breast = tested on: HS 578T breast
# UACC-257 melanoma = tested on: UACC-257 melanoma
# K-562 leukemia = tested on: K-562 leukemia
# MDA-N = tested on: MDA-N
# SK-MEL-5 melanoma = tested on: SK-MEL-5 melanoma
# KM12 colon = tested on: KM12 colon
# 786-0 renal = tested on: 786-0 renal
# IGROV1 ovarian = tested on: IGROV1 ovarian
# MDA-MB-231 breast = tested on: MDA-MB-231 breast
# MOLT-4 leukemia = tested on: MOLT-4 leukemia
# SF-539 CNS = tested on: SF-539 CNS
# MDA-MB-435 = tested on: MDA-MB-435
# SF-268 CNS = tested on: SF-268 CNS
smiles,measurement,setting,value
O=C(Nc1ccc(Nc2ccc3c(c2)C(=O)c2ccccc2C3=O)c2c1C(=O)c1ccccc1C2=O)c1ccccc1,TGI,SF-295 CNS,> 100 µM
same,TGI,T-47D breast,> 100 µM
same,TGI,OVCAR-8 ovarian,> 100 µM
same,TGI,HOP-62 NSCLC,> 100 µM
same,TGI,TK-10 renal,> 100 µM
same,TGI,NCI-H226 lung,> 100 µM
same,TGI,COLO 205 colon,> 100 µM
same,TGI,NCI-H23 lung,> 100 µM
same,TGI,SNB-19 CNS,> 100 µM
same,TGI,NCI-H460 lung,35.4 µM
same,TGI,A549 NSCLC,> 100 µM
same,TGI,BT-549 breast,> 100 µM
same,TGI,UO-31 renal,> 100 µM
same,TGI,OVCAR-3 ovarian,> 100 µM
same,TGI,SR leukemia,17.1 µM
same,TGI,HL-60(TB) leukemia,> 100 µM
same,TGI,PC-3 prostate,> 100 µM
same,TGI,HCC-2998 colon,86.9 µM
same,TGI,ACHN renal,> 100 µM
same,TGI,EKVX NSCLC,> 100 µM
same,TGI,A498 renal,> 100 µM
same,TGI,RPMI-8226 leukemia,> 100 µM
same,TGI,SK-MEL-2 melanoma,> 30.5 µM
same,TGI,HCT-116 colon,> 100 µM
same,TGI,M14 melanoma,> 100 µM
same,TGI,CCRF-CEM leukemia,> 72.8 µM
same,TGI,NCI-H522 lung,> 42.1 µM
same,TGI,OVCAR-5 ovarian,> 100 µM
same,TGI,NCI/ADR-RES ovarian,> 100 µM
same,TGI,LOX IMVI melanoma,> 100 µM
same,TGI,SNB-75 CNS,58.1 µM
same,TGI,HT29 colon,> 100 µM
same,TGI,DU-145 prostate,> 100 µM
same,TGI,SK-MEL-28 melanoma,> 100 µM
same,TGI,SN12C renal,> 100 µM
same,TGI,CAKI-1 renal,> 100 µM
same,TGI,SW-620 colon,> 100 µM
same,TGI,HOP-92 NSCLC,> 100 µM
same,TGI,HCT-15 colon,> 100 µM
same,TGI,UACC-62 melanoma,> 100 µM
same,TGI,SK-OV-3 ovarian,> 100 µM
same,TGI,MALME-3M melanoma,> 100 µM
same,TGI,RXF 393 renal,> 96.6 µM
same,TGI,OVCAR-4 ovarian,> 100 µM
same,TGI,MCF7 breast,> 100 µM
same,TGI,U251 CNS,98.7 µM
same,TGI,HS 578T breast,> 91.9 µM
same,TGI,UACC-257 melanoma,> 100 µM
same,TGI,K-562 leukemia,> 100 µM
same,TGI,MDA-N,> 100 µM
same,TGI,SK-MEL-5 melanoma,> 100 µM
same,TGI,KM12 colon,> 100 µM
same,TGI,786-0 renal,> 100 µM
same,TGI,IGROV1 ovarian,> 100 µM
same,TGI,MDA-MB-231 breast,> 100 µM
same,TGI,MOLT-4 leukemia,> 69.3 µM
same,TGI,SF-539 CNS,> 100 µM
same,TGI,MDA-MB-435,> 100 µM
same,TGI,SF-268 CNS,> 100 µM
